Test results reported in PubChem BioAssay (NCI).
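96-well plates; 48 h exposure; 5 concentrations. Endpoints by linear interpolation between flanking doses. Not reached: highest tested concentration assigned. At the GI50, growth is halved. TGI marks complete inhibition of growth.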

What was measured:
Assay in all cases: inhibition of tumour cell growth, NCI panel, 48 h
TK-10 renal = system: TK-10 renal
CCRF-CEM leukemia = system: CCRF-CEM leukemia
MOLT-4 leukemia = system: MOLT-4 leukemia
SF-295 CNS = system: SF-295 CNS
786-0 renal = system: 786-0 renal
NCI-H460 lung = system: NCI-H460 lung
A549 NSCLC = system: A549 NSCLC
SK-MEL-5 melanoma = system: SK-MEL-5 melanoma
SK-OV-3 ovarian = system: SK-OV-3 ovarian
PC-3 prostate = system: PC-3 prostate

SMILES | TGI (TK-10 renal) [µM] | TGI (CCRF-CEM leukemia) [µM] | TGI (MOLT-4 leukemia) [µM] | TGI (SF-295 CNS) [µM] | TGI (786-0 renal) [µM] | TGI (NCI-H460 lung) [µM] | TGI (A549 NSCLC) [µM] | TGI (SK-MEL-5 melanoma) [µM] | TGI (SK-OV-3 ovarian) [µM] | GI50 (CCRF-CEM leukemia) [µM] | GI50 (MOLT-4 leukemia) [µM] | GI50 (PC-3 prostate) [µM] | TGI (PC-3 prostate) [µM] | GI50 (SF-295 CNS) [µM] | GI50 (786-0 renal) [µM] | GI50 (SK-MEL-5 melanoma) [µM] | GI50 (SK-OV-3 ovarian) [µM] | GI50 (TK-10 renal) [µM] | GI50 (NCI-H460 lung) [µM] | GI50 (A549 NSCLC) [µM]
CC(=O)CCCCO | > 100 | > 100 | > 100 | > 100 | > 100 | > 100 | > 100 | > 100 | > 100 |  |  |  |  |  |  |  |  |  |  | 
COc1ccc(-c2ccc(-c3ccc(-c4ccc(C(=N)N)cc4)s3)s2)cc1OC |  | 6.4 | 6.6 | 45.5 | 49.7 |  |  | 60.2 | 37.3 | 2.24 | 2.51 | 2.78 | 9.39 | 21.2 | 18.4 | 14.7 | 14.5 |  |  | 
O=Nc1ccc2ccccc2c1O | 24.5 |  |  | 25.4 | 32.8 | 36.6 | 19.6 | 8.41 | 45.5 |  |  | 2.61 | 11.9 | 7.78 | 18.4 | 2.71 | 19.9 | 11.8 | 15.5 | 6.2
CO[C@@H]1CC(=O)C2(CC(=O)O[C@@H]2/C=C(\C)CCC=C(C)C)C[C@@H]1O (stereo partly drawn) | 3.35 |  | > 50 | > 11.7 | 1.58 |  | > 12.2 | 2.13 | 5.3 |  | 0.233 | 0.378 | 1.44 | 1.43 | 0.761 | 0.913 | 1.62 | 1.26 | 0.744 | 1.65
Cc1cc(NS(=O)(=O)c2ccc(NC(=O)c3cccc4c(Nc5ccc(S(=O)(=O)N=C(N)N)cc5)c5ccccc5nc34)cc2)no1 | > 100 |  | > 100 | > 100 | > 100 | > 100 | > 100 | > 100 | > 100 |  |  |  |  |  |  |  |  |  |  | 
NC(N)=NNC(=O)CCCCCCCC(=O)NN=C(N)N | > 100 | > 100 |  | > 100 | > 100 | > 100 | > 100 | > 100 | > 100 |  |  |  |  |  |  |  |  |  |  | 
Cc1ccc2c(c1)NC(=O)CC(c1ccccc1)=N2 | > 100 |  | 85.8 | > 100 | > 100 | > 100 | > 100 | > 100 | > 100 |  |  |  | > 100 |  |  |  |  |  |  | 
Nc1c(C(=O)Nc2ccccc2)[n+]([O-])c2ccccc2[n+]1[O-] | 42.2 | > 100 | > 100 | 41.1 | 27.1 | 35.7 | 68 | 29.1 | > 100 |  |  |  |  |  |  |  |  |  |  | 
COc1ccc(/C=C\c2cc(OC)c(OC)c(OC)c2)cc1OC(=O)CCC(=O)O | > 100 | > 100 |  | 67.7 | > 100 | 31.5 | > 100 |  | > 100 |  |  |  | > 100 |  | 0.0121 | < 0.0001 | 0.0442 |  |  | 0.157
c1ccc2c(c1)[nH]c1cnc3c4cccnc4[nH]c3c12 | 26.1 | 54.2 | 49.3 | 49.8 | 31.7 | 50.1 | 34.7 | 39.9 |  |  |  |  |  |  |  |  |  |  |  | 
COc1cc2c(cc1O)CC13CCC(=O)N1CCc1cc(OC)c(O)c-2c13 (stereo not drawn) | > 68.1 | > 68.1 | > 68.1 | > 68.1 | > 68.1 | > 68.1 | > 68.1 | > 68.1 |  |  |  |  |  |  |  |  |  |  |  | 
CC(=O)OC1(C)C(=O)OC1(C)C(C)=O (stereo not drawn) | > 100 | > 100 | > 100 | > 100 | > 100 |  | > 100 | > 100 | > 100 |  |  |  |  |  |  |  |  |  |  | 
CCN(c1ccc(Br)cc1)c1c(Br)c(=O)nc2ccccn12 | > 100 | > 100 | > 100 |  | > 100 | > 100 | > 100 | > 100 | > 100 |  |  |  |  |  |  |  |  |  |  | 
CCCCOC(=O)NC(=O)c1cn(CCSCCOC(=O)NCCCCCCNC(=O)OCCSCCn2cc(C(=O)NC(=O)OCCCC)c(=O)[nH]c2=O)c(=O)[nH]c1=O | 92.4 |  |  | > 100 | > 100 | > 100 | > 100 | > 100 | > 100 |  |  |  |  |  |  |  |  |  |  | 
CN1CCN(Cc2ccc(NC(=O)c3ccc(C#Cc4c(N)ncc5ccc(F)cc45)cc3)cc2C(F)(F)F)CC1 | 1.79 |  | 1.74 | 2.04 | 1.73 | 2.02 | 2.19 | 1.58 | 7.63 |  | 0.799 | 0.834 | 1.61 | 1.04 | 0.924 | 0.871 | 2.2 | 0.977 | 1.06 | 1.05
CC(C)(C)C(=O)ON1N=NC2C3CC(OCc4ccccc4)(OCc4ccccc4)C(O3)C21 (stereo not drawn) |  | 45.8 | 32.2 | 52.9 | 36.4 | 60.4 | > 100 | 31.9 | > 100 |  |  |  |  |  |  |  |  |  |  | 

SMILES | TGI (TK-10 renal) [µM] | TGI (CCRF-CEM leukemia) [µM] | TGI (MOLT-4 leukemia) [µM] | TGI (SF-295 CNS) [µM] | TGI (786-0 renal) [µM] | TGI (NCI-H460 lung) [µM] | TGI (A549 NSCLC) [µM] | TGI (SK-MEL-5 melanoma) [µM] | TGI (SK-OV-3 ovarian) [µM] | GI50 (CCRF-CEM leukemia) [µM] | GI50 (MOLT-4 leukemia) [µM] | GI50 (PC-3 prostate) [µM] | TGI (PC-3 prostate) [µM] | GI50 (SF-295 CNS) [µM] | GI50 (786-0 renal) [µM] | GI50 (SK-MEL-5 melanoma) [µM] | GI50 (SK-OV-3 ovarian) [µM] | GI50 (TK-10 renal) [µM] | GI50 (NCI-H460 lung) [µM] | GI50 (A549 NSCLC) [µM]
C1OC1CO[C@@H]1CO[C@H]2[C@@H]1OC[C@H]2OCC1CO1 (stereo partly drawn) | > 100 | > 100 | > 100 | > 100 | > 100 | > 100 | > 100 | > 100 | > 100 |  |  |  |  |  |  |  |  |  |  | 
NC(=O)C(c1ccccc1)N1CCOCC1 (stereo not drawn) | > 100 | > 100 | > 100 | > 100 | > 100 | > 100 | > 100 | > 100 | > 100 |  |  |  |  |  |  |  |  |  |  | 
O=C1CN(C(=O)c2ccccc2)Cc2[nH]c3ccccc3c21 | > 100 | > 100 | > 100 | > 100 | > 100 | > 100 | > 100 | > 100 | > 100 |  |  |  |  |  |  |  |  |  |  | 
Cc1ccc(SC2=CC(=O)c3nc4ccccc4c4ccnc2c34)cc1 | > 100 |  | > 100 | > 100 | > 58.1 | > 100 | > 100 | > 66.8 | > 100 |  | 42.8 | 22 | 71.2 | > 100 | 24.5 | 29.1 | > 100 | 53.6 | 61.4 | > 79.8
CCSC1=C(C)N(C=NC(C)(C)C)CC1 | > 100 | > 100 | > 100 | > 100 | > 100 | > 100 | > 100 | > 100 | > 100 |  |  |  |  |  |  |  |  |  |  | 
O=C1C(=O)N(c2ccc(Cl)cc2Cl)C(=O)C(=O)C1c1nc2ccccc2o1 | > 100 | > 100 | > 100 | > 100 | > 100 | > 100 | > 100 | > 100 | > 100 |  |  |  |  |  |  |  |  |  |  | 
COc1ccc(-n2c3c(c4c(CN5CCOCC5)c(O)ccc42)CCc2ccccc2C3=O)cc1 | > 100 |  | > 100 | > 100 | > 100 | > 100 | > 100 | > 100 | > 100 |  | 45.9 | 16.9 | > 100 | > 100 | 75.8 | 63.1 | > 100 | > 100 | > 100 | > 100
O=C1c2c(n(Cc3ccccc3)c(=O)n2Cc2ccccc2)C(=O)N1Cc1ccccc1 | > 100 | > 100 | > 100 | > 100 | > 100 | > 100 | > 100 | > 100 | > 100 |  |  |  |  |  |  |  |  |  |  | 
O=c1cc(-c2ccccc2)[nH]n1-c1nc2ccccc2[nH]1 | > 100 | > 100 |  | > 100 | 46.6 | > 100 | > 100 | 23.4 | > 100 | 1.22 |  | 4.22 | 44.5 | 2.92 | 4.8 | 5.18 | 8.58 | 17.7 | 2.51 | 4.46
CN1CC(C(=O)C2C(=O)c3ccccc3C2=O)C(=O)C(=O)C(C(=O)C2C(=O)c3ccccc3C2=O)C1 (stereo not drawn) | > 100 | > 100 | > 100 | > 100 | > 100 | > 100 | > 100 |  | > 100 |  |  |  |  |  |  |  |  |  |  | 
CC#CC1/C(=C\C(=O)OC)CCCC1O (stereo not drawn) | > 100 | > 100 | > 100 | > 100 | > 100 | > 100 | > 100 | > 100 | > 100 |  |  |  |  |  |  |  |  |  |  | 
CCN(CCCl)CCCNc1c2ccccc2nc2ccc(OC)cc12 |  |  |  |  |  |  | 1300 |  |  | 67.6 | 15.7 |  |  | 308 | 102 | 626 | 446 | 872 | 129 | 
O=C(CC(=O)N1N=C(N2c3ccccc3Sc3ccccc32)CC1c1ccccc1)Nc1ccc(Cl)cc1 (stereo not drawn) | > 100 |  |  | > 100 | > 100 | > 100 | > 100 | > 100 | > 100 |  |  |  |  |  |  |  |  |  |  | 
CCOC(=O)C1SC(=Nc2ccc(Cl)c(Cl)c2)N=C1C (stereo not drawn) | > 100 | 31.3 | > 100 | > 100 | 31.3 | > 100 | > 100 |  | > 100 |  |  |  |  |  |  |  |  |  |  | 
CC1=CCC23C(C1)OC(Br)(C=CC2(C)O)C3(C)C (stereo not drawn) | > 100 | > 100 |  | > 100 | > 100 | > 100 | > 100 | > 100 |  |  |  |  |  |  |  |  |  |  |  | 
